Results from patent US20230348401A1, “Inhibitors of Glucose-6-phosphate Dehydrogenase and Uses Thereof” (The Trustees of Princeton University, priority 2020, published 2023).

How the values were obtained:
[1] = system: mouse CD8+ and CD4+ T cells; assay: Metabolites and 1-2H-glucose tracing in active T cells; format: cell-based
Method: Cells were cultured in complete RPMI media (RPMI 1640 supplemented with 10% FBS, 100 U/ml penicillin, 100 µg/ml streptomycin, and 50 µM 2-mercaptoethanol). Naïve T cells were either rested in complete RPMI media supplemented with recombinant IL-7 (50U/mL) or stimulated for 48 hours with plate-bound anti-CD3 (10 µg/ml) and anti-CD28 (5 µg/ml) in complete RPMI media supplemented with 100 µM alanine and recombinant IL-2 (100 U/mL). Activated T cells were maintained in complete RPMI media supplemented with recombinant IL-2 (100 U/mL). All experiments on “active” T cells were performed at day 4-5 post-activation
For all experiments involving stable isotope tracers (e.g., 1-^2H-glucose), the isotope tracer nutrient was substituted for unlabeled nutrient at the same concentration normally found in the base media for a given cell type (e.g., DMEM for HCT116, RPMI for T cells, etc.). In addition, dialyzed FBS was used as a supplement in place of FBS.
(§1) For suspension cells (including T cells and red blood cells), 2×10^6 cells were seeded in 1 mL of media in 12-well plates and incubated with appropriate media, which included isotope tracers and/or chemical inhibitors and/or cytokines, as described. For all experiments involving small molecule agents, DMSO concentrations were <0.2%. After 2 hours, cell suspensions were transferred to 1.5 mL tubes and pelleted (30 seconds, 6000 rpm, room temperature). Media was removed by aspiration and metabolome extraction was performed by the addition of 75 µL of ice cold solvent (40:40:20 ACN:MeOH:H2O + 0.5%FA). After a 5-minute incubation on ice, acid was neutralized by the addition of NH4HCO3. After centrifugation (15 minutes, 16000 rpm, 4° C.), the resulting supernatant was transferred to a clean tube, frozen on dry ice and kept at -80° C. until LC-MS analysis.

human neutrophils = assay: Neutrophil oxidative burst assay (human); format: cell-based; settings: PMA, 50 µM
Method: Human neutrophils were isolated from 8 ml of blood collected from healthy donors following the protocol approved by the University of Wisconsin Institutional Review Board (Protocol No. 2019-1031-CP001). Neutrophils were purified using the MACSxpress Whole Blood Neutrophil Isolation Kit (Miltenyi Biotec 130-104-434) followed by erythrocyte depletion (Miltenyi Biotec 130-098-196) according to the manufacturer’s instructions.
Suspended neutrophils were plated in culture wells pre-coated with CELL-TAK™ (Corning), spun at 200 × g for 1 minute with minimal acceleration/deceleration, and then incubated for 1 hour at 37° C. Murine neutrophils were plated at 2×10^5 cells/well in RPMI 1640 media without sodium bicarbonate. Human neutrophils were plated at 5×10^4 cells/well in RPMI 1640 media supplemented with 0.1% human serum albumin. Inhibitor (G6PDi-1, 50 µM) or vehicle control were added just prior to starting the assay. Mouse neutrophils were also treated with rotenone (0.5 µM, BioVision) + antimycin A (0.5 µM, BioVision) at t = 20 minutes. Oxidative burst was stimulated with PMA (100 nM, Cayman Chemical); oxygen consumption rate was measured using the XF-96e extracellular flux analyzer (Seahorse Bioscience).

CD8+ and CD4+ T cells = assay: Intracellular ROS (CellROX green); format: cell-based, mouse; settings: two hours
Method: For measuring intracellular ROS levels, cells were incubated for 2 hours in the presence of increasing concentrations of G6PDi-1 and then stained for ROS and viability using CellROX Green Flow Cytometry Assay Kit following manufacturer instructions. In some experiments, n-acetyl cysteine (1 mM), galactose oxidase (0.045 U/mL) + galactose (500 µM), or potassium superoxide (0.5 µg/mL) were added to the culture media at the same time the drug and/or PMA and ionomycin were added. All flow cytometry was analyzed with an LSR II (BDbiosciences) using standard filter sets and FCS express 6 flow cytometry software (De Novo Software).

colony formation = assay: Colony formation; format: cell-based; settings: dose-response; rescued by exogenous antioxidants
T cell lineages = assay: NADPH and NADP+ pools across cell types (LC-MS); format: cell-based
Method: as §1
(§2) Metabolites were analyzed using a quadrupole-orbitrap mass spectrometer (Q Exactive Plus, Thermo Fisher Scientific, Waltham, MA), coupled to hydrophilic interaction chromatography (HILIC) with LC separation on a XBridge BEH Amide column (Waters), or a stand-alone orbitrap (Thermo-Fisher Exactive) coupled to reversed-phase ion-pairing chromatography with LC separation on a HSS-T3 column (Waters). […]

HCT116 cells = assay: NADP/NADPH ratio and dUMP levels in HCT116 cells; format: cell-based, human; settings: dose-response
Method: For analysis of intracellular metabolites by LC-MS, adherent cell lines were plated and grown to 80% confluency in 6-well plates. At the start of an experiment, the appropriate media was added to cells, which included isotope tracers and/or chemical inhibitors as described. Cells were incubated at 37° C. at 5% CO2 for 2 hours (unless otherwise noted). For all experiments involving small molecule agents, DMSO concentrations were <0.2%. After 2 hours, media was removed by aspiration and metabolome extraction was performed (without any wash steps) by the addition of 800 µL of ice cold solvent (40:40:20 acetonitrile:methanol:water + 0.5% formic acid). After a 1-minute incubation on ice, the extract was neutralized by the addition of NH4HCO3 (15% w/v). The samples were incubated at -20° C. for approximately 30 minutes, at which point the wells were scraped and the extract transferred to Eppendorf tubes and centrifuged (15 minutes, 16000 rpm, 4° C.). […]
as §2

N#Cc1cc(Nc2ncc3c(n2)CCCCC3=O)cs1 [Compound 2, 4-([5-oxo-6H,7H,8H,9H-cyclohepta[d]pyrimidin-2-yl]amino)thiophene-2-carbonitrile]
NADPH and 6-pg levels ([1]; 10 µM, day 4-5 post-activation): decreased
2H transfer from glucose to NADPH ([1]; 10 µM, day 4-5 post-activation, 1-2H-glucose): completely blocked
fatty acid synthesis ([1]; CD8+ T cells): nearly completely ablated
time to effects on NADPH labeling and NADP+, NADPH and 6-pg levels ([1]; active CD8+ T cells, 50 µM): ≤ 10 min
time to restoration of NADPH, NADP+ and 6-pg levels after removing the inhibitor ([1]; active T cells): ≤ 2 h
oxidative burst (oxygen consumption rate) (human neutrophils): decreased oxidative burst
reactive oxygen species (CD8+ and CD4+ T cells): elevated reactive oxygen species
colony formation (colony formation): dose-dependent decrease
decrease in NADPH (T cell lineages): > 10 fold
increase in NADP+ (T cell lineages): 5-10 fold
NADP/NADPH (HCT116 cells): dose-dependent increases
dUMP (HCT116 cells): dose-dependent increases
